According to ChEMBL document CHEMBL1201862, “PubChem BioAssay data set” (2004):
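Step 1: Grow cells in 96-well plates. Step 2: Expose to compound for 48 hours at 5 concentrations. Step 3: Interpolate endpoints linearly; if unreached, use highest concentration. Here, GI50 denotes the concentration required for 50% inhibition of growth.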 Active and inactive are the calls of the source. Cut-off read from the data, not from the text of the source: active = GI50 up to about 1.1 µM and inactive = higher.

How the values were obtained:
Test in all cases: NCI tumour cell line growth inhibition, 48 h
[1] = system: SK-MEL-28
[2] = system: ACHN
[3] = system: SW-620
[4] = system: OVCAR-5
[5] = system: DU-145
[6] = system: CCRF-CEM
[7] = system: 786-0
[8] = system: RPMI-8226
[9] = system: A498
[10] = system: KM12
[11] = system: SNB-19
[12] = system: U-251
[13] = system: T47D
[14] = system: OVCAR-3
[15] = system: SF-539
[16] = system: BT-549
[17] = system: MDA-MB-435
[18] = system: OVCAR-4
[19] = system: MDA-N
[20] = system: UACC-257

Measured: GI50

[N-]=[N+]=NC1C(O)C(CO)OC1n1ccc(=O)[nH]c1=O (stereo not given)
inactive: [1] > 875 µM | [2] > 875 µM | [3] > 875 µM | [4] > 875 µM | [5] > 875 µM | [6] > 875 µM | [7] > 875 µM | [8] > 875 µM | [9] > 875 µM | [10] > 875 µM | [11] > 875 µM | [12] > 875 µM | [13] > 875 µM | [14] > 875 µM | [15] > 875 µM | [16] > 875 µM | [17] > 875 µM | [18] > 875 µM | [19] > 875 µM | [20] > 875 µM

CO[C@@H](c1ccccc1)[C@H](O)[C@](O)(c1ccccc1)P(=O)(OC)OC
inactive: [1] > 100 µM | [2] > 100 µM | [3] > 100 µM | [4] > 100 µM | [5] > 100 µM | [6] > 100 µM | [7] > 100 µM | [8] > 100 µM | [9] > 100 µM | [10] > 100 µM | [11] > 100 µM | [12] > 100 µM | [13] > 100 µM | [14] > 100 µM | [15] > 100 µM | [16] 47.6 µM | [17] > 100 µM | [18] > 100 µM | [19] > 100 µM | [20] > 100 µM
